What follows are molecules tested on HCT116 colorectal cancer cells (assay: Cisplatin sensitization assay (96 h cell viability MTS)). Conditions: compound and Cisplatin added simultaneously, Cisplatin sensitization value.
Format: cell-based
Procedure, shortened: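 Compound and cisplatin added together as a full matrix of 2-fold serial dilutions from a top final concentration of 10 μM; cells incubated 96 h at 37° C, 5% CO2. Viability then read by MTS after 1 h further incubation; sensitization value reported in μM bins.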
`CNC(=O)C1CCN(c2c(F)cncc2NC(=O)c2c(N)nn3cc(F)cnc23)CC1` [I-G-33, 2-amino-6-fluoro-N-(5-fluoro-4-(4-(methylcarbamoyl)piperidin-1-yl)pyridin-3-yl)pyrazolo[1,5-a]pyrimidine-3-carboxamide] was tested, and the “Cisplatin Sensitization Assay” value was “+++ (Cisplatin sensitization value of <0.02 μM)”.
`Nc1nn2cc(F)cnc2c1C(=O)Nc1cncc(F)c1N1CCC(C(=O)N2CCN(C3COC3)CC2)CC1` [I-G-32, 2-amino-6-fluoro-N-[5-fluoro-4-[4-[4-(oxetan-3-yl)piperazine-1-carbonyl]-1-piperidyl]-3-pyridyl]pyrazolo[1,5-a]pyrimidine-3-carboxamide] was tested, and the “Cisplatin Sensitization Assay” value was “+++ (Cisplatin sensitization value of <0.02 μM)”.
In the case of `COC1CCN(c2ccncc2NC(=O)c2c(N)nn3cc(Cl)cnc23)CC1` [I-N-73, 2-amino-6-chloro-N-(4-(4-methoxypiperidin-1-yl)pyridin-3-yl)pyrazolo[1,5-a]pyrimidine-3-carboxamide], the “Cisplatin Sensitization Assay” value is reported as “+++ (Cisplatin sensitization value of <0.02 μM)”.
In the case of `COCCN1CCN(c2c(F)cncc2NC(=O)c2c(N)nn3cc(F)cnc23)CC1` [I-N-127, 2-amino-6-fluoro-N-(5-fluoro-4-(4-(2-methoxyethyl)piperazin-1-yl)pyridin-3-yl)pyrazolo[1,5-a]pyrimidine-3-carboxamide], the “Cisplatin Sensitization Assay” value is reported as “+++ (Cisplatin sensitization value of <0.02 μM)”.
With `CN1CCC(c2ccncc2NC(=O)c2c(N)nn3cc(F)cnc23)CC1` [I-C-1, 2-amino-6-fluoro-N-(4-(1-methylpiperidin-4-yl)pyridin-3-yl)pyrazolo[1,5-a]pyrimidine-3-carboxamide] the “Cisplatin Sensitization Assay” value was “++ (Cisplatin sensitization value>0.02 μM but <0.2 μM)”.
For `CN1CCN(c2c(Cl)cncc2NC(=O)c2c(N)nn3cc(Cl)cnc23)CC1` [I-N-41, 2-amino-6-chloro-N-(5-chloro-4-(4-methylpiperazin-1-yl)pyridin-3-yl)pyrazolo[1,5-a]pyrimidine-3-carboxamide], the “Cisplatin Sensitization Assay” value was “+++ (Cisplatin sensitization value of <0.02 μM)”.
For `Nc1nn2cc(Cl)cnc2c1C(=O)Nc1cnccc1Oc1cccnc1` [I-O-70, 2-amino-6-chloro-N-(4-(pyridin-3-yloxy)pyridin-3-yl)pyrazolo[1,5-a]pyrimidine-3-carboxamide], the “Cisplatin Sensitization Assay” value was “+++ (Cisplatin sensitization value of <0.02 μM)”.
For `CN1CCN(C(=O)C2(C#N)CCN(c3c(F)cncc3NC(=O)c3c(N)nn4cc(F)cnc34)CC2)CC1` [I-G-25, 2-amino-N-(4-(4-cyano-4-(4-methylpiperazine-1-carbonyl)piperidin-1-yl)-5-fluoropyridin-3-yl)-6-fluoropyrazolo[1,5-a]pyrimidine-3-carboxamide], the “Cisplatin Sensitization Assay” value was “+++ (Cisplatin sensitization value of <0.02 μM)”.
For `CNc1cc(OC)c(NC(=O)c2c(N)nn3cc(F)cnc23)cn1` [I-O-90, 2-amino-6-fluoro-N-(4-methoxy-6-(methylamino)pyridin-3-yl)pyrazolo[1,5-a]pyrimidine-3-carboxamide], the “Cisplatin Sensitization Assay” value was “+ (Cisplatin sensitization value>0.2 μM but <5 μM)”.
`CC1(C)CN(C(=O)C2CCN(c3c(F)cncc3NC(=O)c3c(N)nn4cc(F)cnc34)CC2)CCN1` [I-G-27, 2-amino-N-(4-(4-(3,3-dimethylpiperazine-1-carbonyl)piperidin-1-yl)-5-fluoropyridin-3-yl)-6-fluoropyrazolo[1,5-a]pyrimidine-3-carboxamide] was tested, and the “Cisplatin Sensitization Assay” value was “++ (Cisplatin sensitization value>0.02 μM but <0.2 μM)”.
In the case of `Nc1nn2cc(F)cnc2c1C(=O)Nc1cnccc1-c1ccnnc1` [I-C-26, 2-amino-6-fluoro-N-(4-(pyridazin-4-yl)pyridin-3-yl)pyrazolo[1,5-a]pyrimidine-3-carboxamide], the “Cisplatin Sensitization Assay” value is reported as “++ (Cisplatin sensitization value>0.02 μM but <0.2 μM)”.
`N#CCc1cnc2c(C(=O)Nc3cnccc3N3CCOC(CN)C3)c(N)nn2c1` (centres unmarked) [I-N-90, 2-amino-N-(4-(2-(aminomethyl)morpholino)pyridin-3-yl)-6-(cyanomethyl)pyrazolo[1,5-a]pyrimidine-3-carboxamide] was tested, and the “Cisplatin Sensitization Assay” value was “+ (Cisplatin sensitization value>0.2 μM but <5 μM)”.
For `COC(=O)[C@H]1CC[C@H](Oc2ccncc2NC(=O)c2c(N)nn3cc(F)cnc23)CC1` [I-O-13, (1r,4r)-methyl 4-((3-(2-amino-6-fluoropyrazolo[1,5-a]pyrimidine-3-carboxamido)pyridin-4-yl)oxy)cyclohexanecarboxylate], the “Cisplatin Sensitization Assay” value was “+++ (Cisplatin sensitization value of <0.02 μM)”.
`Nc1nn2cc(F)cnc2c1C(=O)Nc1cncc(F)c1N1CCCCC1` [I-N-270, 2-amino-6-fluoro-N-(5-fluoro-4-(piperidin-1-yl)pyridin-3-yl)pyrazolo[1,5-a]pyrimidine-3-carboxamide] was tested, and the “Cisplatin Sensitization Assay” value was “+++ (Cisplatin sensitization value of <0.02 μM)”.
`CS(=O)(=O)C1CN(C(=O)C2CCN(c3c(F)cncc3NC(=O)c3c(N)nn4cc(F)cnc34)CC2)C1` [I-G-86, 2-amino-6-fluoro-N-(5-fluoro-4-(4-(3-(methylsulfonyl)azetidine-1-carbonyl)piperidin-1-yl)pyridin-3-yl)pyrazolo[1,5-a]pyrimidine-3-carboxamide] was tested, and the “Cisplatin Sensitization Assay” value was “+++ (Cisplatin sensitization value of <0.02 μM)”.
`COc1ccc(-c2ccncc2NC(=O)c2c(N)nn3cc(F)cnc23)cn1` [I-C-27, 2-amino-6-fluoro-N-(6-methoxy-[3,4′-bipyridin]-3′-yl)pyrazolo[1,5-a]pyrimidine-3-carboxamide] was tested, and the “Cisplatin Sensitization Assay” value was “++ (Cisplatin sensitization value>0.02 μM but <0.2 μM)”.
With `Nc1nn2cc(F)cnc2c1C(=O)Nc1cnccc1N1CCC(S(=O)(=O)N2CCOCC2)CC1` [I-N-170, 2-amino-6-fluoro-N-(4-(4-(morpholinosulfonyl)piperidin-1-yl)pyridin-3-yl)pyrazolo[1,5-a]pyrimidine-3-carboxamide] the “Cisplatin Sensitization Assay” value was “+++ (Cisplatin sensitization value of <0.02 μM)”.
With `Nc1nn2cc(F)cnc2c1C(=O)Nc1cnccc1N1CCN(S(=O)(=O)C2CC2)CC1` [I-N-176, 2-amino-N-(4-(4-(cyclopropylsulfonyl)piperazin-1-yl)pyridin-3-yl)-6-fluoropyrazolo[1,5-a]pyrimidine-3-carboxamide] the “Cisplatin Sensitization Assay” value was “+++ (Cisplatin sensitization value of <0.02 μM)”.
`Nc1nn2cc(F)cnc2c1C(=O)Nc1cncc(F)c1N1CCC(C(=O)N2CCN3CCCC3C2)CC1` (centres unmarked) [I-G-10, 2-amino-6-fluoro-N-(5-fluoro-4-(4-(octahydropyrrolo[1,2-a]pyrazine-2-carbonyl)piperidin-1-yl)pyridin-3-yl)pyrazolo[1,5-a]pyrimidine-3-carboxamide] was tested, and the “Cisplatin Sensitization Assay” value was “+++ (Cisplatin sensitization value of <0.02 μM)”.
With `Nc1nn2cc(F)cnc2c1C(=O)Nc1cnccc1N1CCN2C(=O)CC[C@H]2C1` [I-N-217, (S)-2-amino-6-fluoro-N-(4-(6-oxohexahydropyrrolo[1,2-a]pyrazin-2(1H)-yl)pyridin-3-yl)pyrazolo[1,5-a]pyrimidine-3-carboxamide] the “Cisplatin Sensitization Assay” value was “++ (Cisplatin sensitization value>0.02 μM but <0.2 μM)”.
In the case of `CN1CC2(CCN(c3ccncc3NC(=O)c3c(N)nn4cc(F)cnc34)CC2)OC1=O` [I-N-216, 2-amino-6-fluoro-N-(4-(3-methyl-2-oxo-1-oxa-3,8-diazaspiro[4.5]decan-8-yl)pyridin-3-yl)pyrazolo[1,5-a]pyrimidine-3-carboxamide], the “Cisplatin Sensitization Assay” value is reported as “+++ (Cisplatin sensitization value of <0.02 μM)”.
In the case of `COCCOc1ccncc1NC(=O)c1c(N)nn2cc(Cl)cnc12` [I-O-55, 2-amino-6-chloro-N-(4-(2-methoxyethoxy)pyridin-3-yl)pyrazolo[1,5-a]pyrimidine-3-carboxamide], the “Cisplatin Sensitization Assay” value is reported as “++ (Cisplatin sensitization value>0.02 μM but <0.2 μM)”.
In the case of `Nc1nn2cc(F)cnc2c1C(=O)Nc1cnccc1N1CCN2[C@@H](CCS2(=O)=O)C1` [I-N-247, (S)-2-amino-N-(4-(1,1-dioxidotetrahydro-2H-isothiazolo[2,3-a]pyrazin-5(3H)-yl)pyridin-3-yl)-6-fluoropyrazolo[1,5-a]pyrimidine-3-carboxamide], the “Cisplatin Sensitization Assay” value is reported as “+++ (Cisplatin sensitization value of <0.02 μM)”.
In the case of `CS(=O)(=O)CC1CCN(c2ccncc2NC(=O)c2c(N)nn3cc(F)cnc23)CC1` [I-N-215, 2-amino-6-fluoro-N-(4-(4-((methylsulfonyl)methyl)piperidin-1-yl)pyridin-3-yl)pyrazolo[1,5-a]pyrimidine-3-carboxamide], the “Cisplatin Sensitization Assay” value is reported as “+++ (Cisplatin sensitization value of <0.02 μM)”.
For `Nc1nn2cc(F)cnc2c1C(=O)Nc1cnccc1N1CCN2CCOC[C@H]2C1` [I-N-116, (R)-2-amino-6-fluoro-N-(4-(hexahydropyrazino[2,1-c][1,4]oxazin-8(1H)-yl)pyridin-3-yl)pyrazolo[1,5-a]pyrimidine-3-carboxamide], the “Cisplatin Sensitization Assay” value was “++ (Cisplatin sensitization value>0.02 μM but <0.2 μM)”.
With `Nc1nn2cc(F)cnc2c1C(=O)Nc1cncc(Cl)c1N1CCC(O)C1` (centres unmarked) [I-N-284, 2-amino-N-(5-chloro-4-(3-hydroxypyrrolidin-1-yl)pyridin-3-yl)-6-fluoropyrazolo[1,5-a]pyrimidine-3-carboxamide] the “Cisplatin Sensitization Assay” value was “+++ (Cisplatin sensitization value of <0.02 μM)”.
With `CC(=O)N1CCC2(CCN(c3ccncc3NC(=O)c3c(N)nn4cc(F)cnc34)CC2)C1` [I-N-257, N-(4-(2-acetyl-2,8-diazaspiro[4.5]decan-8-yl)pyridin-3-yl)-2-amino-6-fluoropyrazolo[1,5-a]pyrimidine-3-carboxamide] the “Cisplatin Sensitization Assay” value was “+++ (Cisplatin sensitization value of <0.02 μM)”.
In the case of `Nc1nn2cc(F)cnc2c1C(=O)Nc1cnccc1-n1cnc(C(F)(F)F)c1` [I-N-27, 2-amino-6-fluoro-N-(4-(4-(trifluoromethyl)-1H-imidazol-1-yl)pyridin-3-yl)pyrazolo[1,5-a]pyrimidine-3-carboxamide], the “Cisplatin Sensitization Assay” value is reported as “++ (Cisplatin sensitization value>0.02 μM but <0.2 μM)”.
In the case of `Nc1nn2cc(F)cnc2c1C(=O)Nc1cnccc1-c1ccc(C(=O)N2CCNCC2)cc1` [I-C-44, 2-amino-6-fluoro-N-(4-(4-(piperazine-1-carbonyl)phenyl)pyridin-3-yl)pyrazolo[1,5-a]pyrimidine-3-carboxamide], the “Cisplatin Sensitization Assay” value is reported as “+++ (Cisplatin sensitization value of <0.02 μM)”.

From patent US11370798B2 (Vertex Pharmaceuticals Incorporated, priority 2012, dated 2022)
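Also: Test-compound concentration that lowers the Cisplatin IC50 by a set fold.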
